Patent EP1202975B1, “SUBSTITUTED POLYCYCLIC ARYL AND HETEROARYL PYRAZINONES USEFUL FOR SELECTIVE INHIBITION OF THE COAGULATION CASCADE” (Pharmacia Corporation, priority 1999, dated 2000)
pIC50: −log10 of the molar value. Like-named read-outs stand apart in the source and are kept apart here.

Legend:
Human factor Xa = Human factor Xa (Homo sapiens, UniProt P00742); experiment: Xa Assay; settings: for IC50 or % Inhibition Factor Xa (30 µM): % inhibition at 30 µM
TF-VIIa = target: T1, TF-VIIa (Homo sapiens, UniProt P08709); experiment: TF-VIIa Assay; assay type: biochemical
T1 construct: 2nM recombinant human factor VIIa; purchased American Diagnostica, Greenwich CT; host or cells: soluble TF made in house in E. coli

[1] = read-out: IC50 or % Inhibition Factor Xa (30 µM), cells given as a plain number (IC50)
[2] = read-out: IC50 or % Inhibition TF-VIIa (30 µM); cells given as a plain number (IC50)
[3] = cells given as a plain number (IC50); read-out: IC50 or % Inhibition TF-VIIa (30 µM)

T1 sequence (P08709 213-466 limits assumed): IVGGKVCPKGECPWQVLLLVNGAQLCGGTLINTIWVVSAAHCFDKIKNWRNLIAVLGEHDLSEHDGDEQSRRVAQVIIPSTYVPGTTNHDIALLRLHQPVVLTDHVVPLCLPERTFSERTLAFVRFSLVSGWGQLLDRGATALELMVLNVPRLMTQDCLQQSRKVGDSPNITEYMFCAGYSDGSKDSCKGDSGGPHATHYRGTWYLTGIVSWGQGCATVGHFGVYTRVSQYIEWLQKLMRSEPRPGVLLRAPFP
T1 sequence (P08709 61-212 limits assumed): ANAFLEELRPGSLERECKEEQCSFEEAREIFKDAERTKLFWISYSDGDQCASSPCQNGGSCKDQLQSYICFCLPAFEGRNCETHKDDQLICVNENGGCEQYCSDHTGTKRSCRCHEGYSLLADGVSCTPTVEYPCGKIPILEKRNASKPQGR
T1 sequence (P13726 33-251 partner limits assumed): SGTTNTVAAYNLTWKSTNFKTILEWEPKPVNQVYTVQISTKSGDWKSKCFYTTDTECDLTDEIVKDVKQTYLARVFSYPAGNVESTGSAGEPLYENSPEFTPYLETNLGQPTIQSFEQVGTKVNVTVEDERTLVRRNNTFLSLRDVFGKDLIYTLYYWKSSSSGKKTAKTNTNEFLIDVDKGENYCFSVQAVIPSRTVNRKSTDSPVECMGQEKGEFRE
Sequence of Human factor Xa (P00742 235-488 limits assumed): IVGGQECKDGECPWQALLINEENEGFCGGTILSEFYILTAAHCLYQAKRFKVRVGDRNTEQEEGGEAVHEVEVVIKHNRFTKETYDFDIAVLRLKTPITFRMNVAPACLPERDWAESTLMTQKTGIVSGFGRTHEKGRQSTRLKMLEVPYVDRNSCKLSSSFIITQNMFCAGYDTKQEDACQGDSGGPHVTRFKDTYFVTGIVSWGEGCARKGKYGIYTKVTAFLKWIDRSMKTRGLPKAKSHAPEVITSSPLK
Sequence of Human factor Xa (P00742 41-179 limits assumed): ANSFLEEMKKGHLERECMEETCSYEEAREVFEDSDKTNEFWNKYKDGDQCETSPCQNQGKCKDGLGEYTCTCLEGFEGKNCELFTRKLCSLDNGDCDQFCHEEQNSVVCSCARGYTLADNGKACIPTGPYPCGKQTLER

SMILES	pIC50 (Human factor Xa; [1])	pIC50 (TF-VIIa; [3])	IC50 or % Inhibition Factor Xa (30 µM) (Human factor Xa)	pIC50 (Human factor Xa)	other results
COCC(C)Nc1nc(Cl)c(-c2cccc(N)c2)n(CC(=O)NCc2ccc(C(=N)N)cc2)c1=O (stereo not shown) [1526-05]	< 4.52	–	–	–	pIC50 (TF-VIIa; [2]): 7.00
CC(C)(C)Nc1nc(Cl)c(-c2cccc(N)c2)n(CC(=O)NCc2ccc(C(=N)N)cc2)c1=O [1526-07]	< 4.52	–	–	–	pIC50 (TF-VIIa; [2]): 7.10
CC[C@H](C)Nc1nc(Cl)c(-c2cccc(N)c2)n(CC(=O)NCc2ccc(C(=N)N)cc2)c1=O [1526-09]	< 4.52	–	–	–	pIC50 (TF-VIIa; [2]): 7.52
CCC(CC)Nc1nc(Cl)c(-c2cccc(N)c2)n(CC(=O)NCc2ccc(C(=N)N)cc2)c1=O [1526-11]	< 4.52	7.30	–	–	–
CCCNc1nc(Cl)c(-c2cccc(N)c2)n(CC(=O)NCc2ccc(C(=N)N)cc2)c1=O [1526-13]	< 4.52	–	–	–	pIC50 (TF-VIIa; [2]): 7.22
CCC(C)Nc1nc(Cl)c(-c2cccc(N)c2)n(CC(=O)NCc2ccc(C(=N)N)cc2)c1=O (stereo not shown) [1526-14]	< 4.52	–	–	–	pIC50 (TF-VIIa; [2]): 7.40
CC(C)C(C)Nc1nc(Cl)c(-c2cccc(N)c2)n(CC(=O)NCc2ccc(C(=N)N)cc2)c1=O (stereo not shown) [1526-15]	< 4.52	–	–	–	pIC50 (TF-VIIa; [2]): 7.22
CC[C@@H](C)Nc1nc(Cl)c(-c2cccc(N)c2)n(CC(=O)NCc2ccc(C(=N)N)cc2)c1=O [1526-16]	< 4.52	–	–	–	pIC50 (TF-VIIa; [2]): 7.40
C=CCNc1nc(Cl)c(-c2cccc(N)c2)n(CC(=O)NCc2ccc(C(=N)N)cc2)c1=O [1526-19]	< 4.52	–	–	–	pIC50 (TF-VIIa; [2]): 7.40
C#CCNc1nc(Cl)c(-c2cccc(N)c2)n(CC(=O)NCc2ccc(C(=N)N)cc2)c1=O [1526-21]	< 4.52	–	–	–	pIC50 (TF-VIIa; [2]): 7.30
N=C(N)c1ccc(CNC(=O)Cn2c(-c3cccc(N)c3)c(Cl)nc(NC3CCC3)c2=O)cc1 [1526-23]	< 4.52	–	–	–	pIC50 (TF-VIIa; [2]): 7.52
COCCNc1nc(Cl)c(-c2cccc(N)c2)n(CC(=O)NCc2ccc(C(=N)N)cc2)c1=O [1526-25]	< 4.52	6.85	–	–	–
CC(C)CNc1nc(Cl)c(-c2cccc(N)c2)n(CC(=O)NCc2ccc(C(=N)N)cc2)c1=O [1526-26]	< 4.52	–	–	–	pIC50 (TF-VIIa; [2]): 7.22
C[C@H](Nc1nc(Cl)c(-c2cccc(N)c2)n(CC(=O)NCc2ccc(C(=N)N)cc2)c1=O)C1CCCCC1 [1526-29]	< 4.52	–	–	–	pIC50 (TF-VIIa; [2]): 6.92
N=C(N)c1ccc(CNC(=O)Cn2c(-c3cccc(N)c3)c(Cl)nc(N[C@@H]3CC4CCC3C4)c2=O)cc1 (stereo partly shown) [1526-30]	< 4.52	–	–	–	pIC50 (TF-VIIa; [2]): 7.10
N=C(N)c1ccc(CNC(=O)Cn2c(-c3cccc(N)c3)c(Cl)nc(NC[C@@H]3CCCO3)c2=O)cc1 [1526-33]	< 4.52	–	–	–	pIC50 (TF-VIIa; [2]): 6.59
N=C(N)c1ccc(CNC(=O)Cn2c(-c3cccc(N)c3)c(Cl)nc(NC3CCC3)c2=O)c(F)c1 [1543-39]	–	–	14%	–	pIC50 (TF-VIIa; cells without % sign: IC50; read-out: IC50 or % Inhibition TF-VIIa (30 µM)): 7.40
N=C(N)c1ccc(CNC(=O)Cn2c(Cc3ccccc3)cnc(NCCc3ccccc3)c2=O)cc1 [Example 2]	–	5.30	–	< 4.00	–
N=C(N)NCCC[C@H](NC(=O)Cn1c(-c2ccccc2)c(Cl)nc(NCCc2ccccc2)c1=O)C(=O)c1nccs1 [Example 3]	–	6.70	–	6.00	–
N=C(N)NCCC[C@H](NC(=O)Cn1c(CCc2ccccc2)c(Cl)nc(NCCc2ccccc2)c1=O)C(=O)c1nccs1 [Example 5]	–	5.15	–	5.40	–
N=C(N)NCCC[C@H](NC(=O)Cn1c(-c2ccccc2)cnc(NCCc2ccccc2)c1=O)C(=O)c1nccs1 [Example 6]	–	7.00	–	6.00	–
N=C(N)NCCC[C@H](NC(=O)Cn1c(Cc2ccccc2)cnc(NCCc2ccccc2)c1=O)C(=O)c1nccs1 [Example 7]	–	6.70	–	5.52	–
N=C(N)NCCC[C@H](NC(=O)Cn1c(CCc2ccccc2)cnc(NCCc2ccccc2)c1=O)C(=O)c1nccs1 [Example 8]	–	5.52	–	6.00	–
N=C(N)NCCCNC(=O)Cn1c(-c2ccccc2)cnc(NCCc2ccccc2)c1=O [Example 11]	–	4.04	–	< 4.00	–
N=C(N)NCCCCNC(=O)Cn1c(-c2ccccc2)cnc(NCCc2ccccc2)c1=O [Example 12]	–	< 4.00	–	< 4.00	–

SMILES	pIC50 (Human factor Xa; [1])	pIC50 (TF-VIIa; [3])	IC50 or % Inhibition Factor Xa (30 µM) (Human factor Xa)	pIC50 (Human factor Xa)	other results
N=C(N)NCCCCCNC(=O)Cn1c(-c2ccccc2)cnc(NCCc2ccccc2)c1=O [Example 13]	–	< 4.00	–	< 4.00	–
COc1ccc(-c2cnc(NCCc3ccccc3)c(=O)n2CC(=O)NCCCCNC(=N)N)cc1 [Example 14]	–	< 4.00	–	< 4.00	–
N=C(N)NCCCCNC(=O)Cn1c(-c2ccc3c(c2)OCO3)cnc(NCCc2ccccc2)c1=O [Example 16]	–	< 4.00	–	< 4.00	–
CC(C)Nc1nc(Cl)c(-c2cccc(C#N)c2)n(CC(=O)NCc2ccc(C(=N)N)cc2)c1=O [Example 17]	–	6.15	41%	–	–
N=C(N)c1ccc(CNC(=O)Cn2c(-c3ccccc3)c(Cl)nc(NCCc3ccncc3)c2=O)cc1 [Example 19]	–	6.10	22%@30	–	–
N=C(N)c1ccc(CNC(=O)Cn2c(-c3ccc(-c4ccccc4)cc3)c(Cl)nc(NCCc3cccnc3)c2=O)cc1 [Example 21]	–	–	21%@30	–	IC50 or % Inhibition TF-VIIa (30 µM) (TF-VIIa; % inhibition at 30 µM): 8%@30
N=C(N)c1ccc(CNC(=O)Cn2c(-c3ccc(-c4ccccc4)cc3)c(Cl)nc(NCCc3ccc(Cl)cc3)c2=O)cc1 [Example 22]	–	–	13%@30	–	IC50 or % Inhibition TF-VIIa (30 µM) (TF-VIIa; % inhibition at 30 µM): 0%@30
N=C(N)c1ccc(CNC(=O)Cn2c(-c3cccc(Cl)c3)c(Cl)nc(NCc3ccccc3)c2=O)cc1 [Example 23]	–	5.77	38%@30	–	–
N=C(N)NCCCNc1nc(Cl)c(-c2ccccc2)n(CC(=O)NCc2ccc(C(=N)N)cc2)c1=O [Example 47]	–	6.18	–	4.97	–
N=C(N)NCCNc1nc(Cl)c(-c2ccccc2)n(CC(=O)NCc2ccc(C(=N)N)cc2)c1=O [Example 48]	–	6.24	20%	–	–
N=C(N)NCCCCNc1nc(Cl)c(-c2ccccc2)n(CC(=O)NCc2ccc(C(=N)N)cc2)c1=O [Example 49]	–	6.24	–	4.54	–
N=C(N)CCNc1nc(Cl)c(-c2ccccc2)n(CC(=O)NCc2ccc(C(=N)N)cc2)c1=O [Example 50]	–	6.30	39%	–	–
N=C(N)c1ccc(CNC(=O)Cn2c(-c3ccccc3)c(Cl)nc(NCc3ccc(C(=N)N)cc3)c2=O)cc1 [Example 51]	–	6.19	–	5.01	–
N=C(N)c1ccc(CNC(=O)Cn2c(-c3ccccc3)c(Cl)nc(NCc3cccc(C(=N)N)c3)c2=O)cc1 [Example 52]	–	6.23	–	4.62	–
N#CCCNc1nc(Cl)c(-c2ccccc2)n(CC(=O)NCc2ccc(C(=N)N)cc2)c1=O [Example 53]	–	6.52	7%	–	–
CC(C)Nc1nc(Cl)c(-c2cccc(N)c2)n(CC(=O)NCc2ccc(C(=N)N)s2)c1=O [Example 55]	–	6.82	0%	–	–
CN(C)c1cccc(-c2c(Cl)nc(NCCc3ccccc3)c(=O)n2CC(=O)NCc2ccc(C(=N)N)cc2)c1 [Example 103]	–	6.52	11%@30	–	–
CNc1cccc(-c2c(Cl)nc(NC(C)C)c(=O)n2CC(=O)NCc2ccc(C(=N)N)cc2)c1 [Example 104]	–	5.92	–	< 4.52	–
N=C(N)c1ccc(CNC(=O)Cn2c(-c3ccccc3)cnc(NC(=O)Nc3ccccc3)c2=O)cc1 [Example 106]	–	5.95	30%	–	–
N=C(N)c1ccc(CNC(=O)Cn2c(-c3ccccc3)cnc(NC(=O)Nc3cccc(N)c3)c2=O)cc1 [Example 107]	–	6.24	35%	–	–
N=C(N)c1ccc(CNC(=O)Cn2c(-c3ccccc3)cnc(NC(=O)Nc3cc(Cl)cc(Cl)c3)c2=O)cc1 [Example 108]	–	5.38	20%	–	–
CC(C)NC(=O)Nc1ncc(-c2ccccc2)n(CC(=O)NCc2ccc(C(=N)N)cc2)c1=O [Example 109]	–	5.21	10%	–	–
CC(C)Nc1nc(Cl)c(-c2cc(N)ccc2F)n(CC(=O)NCc2ccc(C(=N)N)cc2F)c1=O [compound 73]	–	7.52	0%	–	–
CC(C)Nc1nc(Cl)c(-c2ccc(Cl)nc2)n(CC(=O)NCc2ccc(C(=N)N)cc2F)c1=O [compound 74]	–	5.49	13%	–	–
CC(C)Nc1nc(Cl)c(-c2cccnc2)n(CC(=O)NCc2ccc(C(=N)N)cc2)c1=O [compound 75]	–	6.68	9%	–	–
